Holding throughout (format): biochemical
For one assay, the target named is Human plasma kallikrein (Homo sapiens (Human), UniProt P03952). Description: Determination of the IC50 for plasma kallikrein. Conditions: 25° C., substrate H-DPro-Phe-Arg-AFC; read-out: IC50 (human PKal). How it is done:
Human plasma kallikrein (Protogen) was incubated at 25° C. with the fluorogenic substrate H-DPro-Phe-Arg-AFC and various concentrations of the test compound. Residual enzyme activity (initial rate of reaction) was determined by measuring the change in […] at 410 nm and the IC50 value for the test compound was determined.

The target in the next assay is Human KLK1 (Homo sapiens (Human), UniProt P06870). Description: Determination of the IC50 for KLK1. As to conditions: 25° C., substrate H-DVal-Leu-Arg-AFC. Here is the method:
Human KLK1 (Callbiochem) was incubated at 25° C. with the fluorogenic substrate H-DVal-Leu-Arg-AFC and various concentrations of the test compound. Residual enzyme activity (initial rate of reaction) was determined by measuring the change in […] at 410 nm and the IC50 value for the test compound was determined.

In a further assay the target is Human FXIa (Homo sapiens (Human), UniProt P03951). Put plainly: Determination of the % inhibition / IC50 for FXIa. Conditions: for IC50: 25° C., substrate Z-Gly-Pro-Arg-AFC. Here is the method:
FXIa inhibitory activity in vitro was determined using standard published methods (see e.g. Johansen et al., Int. J. Tiss. Reac. 1986, 8, 185; Shori et al., Biochem. Pharmacol., 1992, 43, 1209; Sturzebecher et al., Biol. Chem. Hoppe-Seyler, 1992, 373, 1025). […]

For another assay, the target named is Human Factor XIIa (Homo sapiens (Human), UniProt P00748). Put plainly: Factor XIIa inhibitory activity in vitro. As to conditions: 25° C., substrate H-DPro-Phe-Arg-AFC; read-out: IC50 (human FXIIa). How it is done: Human Factor XIIa (Enzyme Research Laboratories) was incubated at 25° C. with the fluorogenic substrate H-DPro-Phe-Arg-AFC and various concentrations of the test compound. Residual enzyme activity (initial rate of reaction) was determined by measuring the change in […] at 410 nm and the IC50 value for the test compound was determined.

One may read the IC50 as the concentration that inhibits the measured activity by half. By inhibition is commonly meant the change of the read-out against control, counted positive when it falls.

Each structure is given as a SMILES string.

Chain of Human plasma kallikrein (P03952 391-638): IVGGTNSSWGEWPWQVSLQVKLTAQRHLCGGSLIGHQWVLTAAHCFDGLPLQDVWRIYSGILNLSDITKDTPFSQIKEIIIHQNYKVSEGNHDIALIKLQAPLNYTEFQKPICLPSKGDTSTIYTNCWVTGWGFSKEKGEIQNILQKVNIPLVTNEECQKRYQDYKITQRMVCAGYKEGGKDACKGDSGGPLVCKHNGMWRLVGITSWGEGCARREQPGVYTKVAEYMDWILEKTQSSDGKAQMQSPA
Chain of Human plasma kallikrein (P03952 20-390): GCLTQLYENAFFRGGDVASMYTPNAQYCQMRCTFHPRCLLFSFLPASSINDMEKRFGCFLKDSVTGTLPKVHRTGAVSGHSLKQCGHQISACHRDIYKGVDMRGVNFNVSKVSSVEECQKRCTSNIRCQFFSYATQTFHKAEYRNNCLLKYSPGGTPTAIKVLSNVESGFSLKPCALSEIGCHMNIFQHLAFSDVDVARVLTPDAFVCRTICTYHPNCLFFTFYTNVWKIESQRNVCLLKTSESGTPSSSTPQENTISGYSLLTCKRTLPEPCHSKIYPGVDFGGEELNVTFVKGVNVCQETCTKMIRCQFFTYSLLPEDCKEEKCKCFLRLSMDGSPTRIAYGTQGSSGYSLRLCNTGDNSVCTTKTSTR
Chain of Human Factor XIIa (P00748 373-615): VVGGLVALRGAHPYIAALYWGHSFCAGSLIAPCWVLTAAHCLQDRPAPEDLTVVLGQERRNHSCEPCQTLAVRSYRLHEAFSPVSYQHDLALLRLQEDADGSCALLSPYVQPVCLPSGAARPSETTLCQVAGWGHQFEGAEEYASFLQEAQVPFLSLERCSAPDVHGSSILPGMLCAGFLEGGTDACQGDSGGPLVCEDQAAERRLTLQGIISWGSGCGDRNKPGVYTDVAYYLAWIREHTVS
Chain of Human FXIa (P03951 388-625): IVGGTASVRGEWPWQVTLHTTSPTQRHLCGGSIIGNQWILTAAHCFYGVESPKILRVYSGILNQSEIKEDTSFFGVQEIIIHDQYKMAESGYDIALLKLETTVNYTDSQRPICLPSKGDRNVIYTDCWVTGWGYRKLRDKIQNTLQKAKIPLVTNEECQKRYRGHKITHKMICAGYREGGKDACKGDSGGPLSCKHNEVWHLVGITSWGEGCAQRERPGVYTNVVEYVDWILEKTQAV
Chain of Human FXIa (P03951 19-387): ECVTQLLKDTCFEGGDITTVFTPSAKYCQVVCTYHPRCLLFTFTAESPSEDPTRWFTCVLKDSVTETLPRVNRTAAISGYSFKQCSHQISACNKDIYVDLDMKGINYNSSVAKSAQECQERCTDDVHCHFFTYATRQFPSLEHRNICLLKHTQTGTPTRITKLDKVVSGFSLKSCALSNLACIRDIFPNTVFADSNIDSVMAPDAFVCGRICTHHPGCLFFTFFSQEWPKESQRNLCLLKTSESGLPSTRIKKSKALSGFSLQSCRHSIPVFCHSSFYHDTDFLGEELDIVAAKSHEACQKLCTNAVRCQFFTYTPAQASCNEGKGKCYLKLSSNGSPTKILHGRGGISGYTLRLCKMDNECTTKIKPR
Chain of Human KLK1 (P06870 25-262): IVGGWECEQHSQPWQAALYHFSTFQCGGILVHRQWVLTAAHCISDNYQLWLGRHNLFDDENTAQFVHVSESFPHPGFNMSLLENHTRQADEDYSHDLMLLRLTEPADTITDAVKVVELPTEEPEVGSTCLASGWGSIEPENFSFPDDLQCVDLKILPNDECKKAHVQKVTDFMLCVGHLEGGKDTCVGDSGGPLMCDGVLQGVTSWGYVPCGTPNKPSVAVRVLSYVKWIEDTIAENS

On to `COCc1nn(Cc2ccc(Cn3ccccc3=O)cc2)cc1C(=O)NCc1cc(OC)ncn1` [Example 4, 3-(methoxymethyl)-N-[(6-methoxypyrimidin-4-yl)methyl]-1-({4-[(2-oxopyridin-1-yl)methyl]phenyl}methyl)pyrazole-4-carboxamide], for which the concentration for half-maximal inhibition (IC50) was 2.3 µM at Human plasma kallikrein, above 4 µM at Human KLK1, above 40 µM at Human FXIa and above 4 µM on Human Factor XIIa.

With `COCc1nn(Cc2ccc(Cn3ccccc3=O)cc2)cc1C(=O)NCc1cc(OC)ncc1C#N` [Example 8, N-[(5-cyano-2-methoxypyridin-4-yl)methyl]-3-(methoxymethyl)-1-({4-[(2-oxopyridin-1-yl)methyl]phenyl}methyl)pyrazole-4-carboxamide], the IC50 was 0.162 µM at Human plasma kallikrein, above 4 µM against Human KLK1, above 40 µM on Human FXIa and above 4 µM at Human Factor XIIa.

For `COCc1nn(Cc2ccc(Cn3ccccc3=O)cc2)cc1C(=O)NCc1nccc(OC)n1` [Example 10, 3-(methoxymethyl)-N-[(4-methoxypyrimidin-2-yl)methyl]-1-({4-[(2-oxopyridin-1-yl)methyl]phenyl}methyl)pyrazole-4-carboxamide], the IC50 at Human plasma kallikrein was 2.45 µM; at Human KLK1 it was above 40 µM; against Human FXIa, above 40 µM; on Human Factor XIIa, above 40 µM.

Take `COCc1nn(Cc2ccc(Cn3ccccc3=O)cc2)cc1C(=O)NCc1ncc(C)c(OC)c1C` [Example 11, N-[(4-methoxy-3,5-dimethylpyridin-2-yl)methyl]-3-(methoxymethyl)-1-({4-[(2-oxopyridin-1-yl)methyl]phenyl}methyl)pyrazole-4-carboxamide]: the IC50 is 0.035 µM on Human plasma kallikrein, above 40 µM against Human KLK1, above 40 µM against Human FXIa and above 40 µM at Human Factor XIIa.

Regarding `COCc1nn(Cc2ccc(Cn3ccccc3=O)cc2)cc1C(=O)NCc1ncccc1C#N` [Example 13, N-[(3-cyanopyridin-2-yl)methyl]-3-(methoxymethyl)-1-({4-[(2-oxopyridin-1-yl)methyl]phenyl}methyl)pyrazole-4-carboxamide], the IC50 on Human plasma kallikrein is 2.95 µM; on Human KLK1, above 4 µM; against Human FXIa it was above 40 µM; at Human Factor XIIa it was above 4 µM.

Take `COCc1nn(Cc2ccc(Cn3ccccc3=O)cc2)cc1C(=O)NCc1ncc(Cl)cc1C#N` [Example 16, N-[(5-chloro-3-cyanopyridin-2-yl)methyl]-3-(methoxymethyl)-1-({4-[(2-oxopyridin-1-yl)methyl]phenyl}methyl)pyrazole-4-carboxamide]: the half-inhibitory concentration (IC50) at Human plasma kallikrein was 0.187 µM; at Human KLK1, above 40 µM; against Human FXIa, above 40 µM; at Human Factor XIIa, above 40 µM.

As to `COCc1nn(Cc2ccc(Cn3ccccc3=O)cc2)cc1C(=O)NCc1ncc(Cl)cc1F` [Example 17, N-[(5-chloro-3-fluoropyridin-2-yl)methyl]-3-(methoxymethyl)-1-({4-[(2-oxopyridin-1-yl)methyl]phenyl}methyl)pyrazole-4-carboxamide], the IC50 is 0.143 µM on Human plasma kallikrein, above 40 µM against Human KLK1, above 40 µM against Human FXIa and above 40 µM at Human Factor XIIa.

For the compound `COCc1nn(Cc2ccc(Cn3ccccc3=O)cc2)cc1C(=O)NCc1cc(OC)c(C)cn1` [Example 20, N-[(4-methoxy-5-methylpyridin-2-yl)methyl]-3-(methoxymethyl)-1-({4-[(2-oxopyridin-1-yl)methyl]phenyl}methyl)pyrazole-4-carboxamide], the IC50 on Human plasma kallikrein is 3.22 µM; on Human KLK1, above 40 µM; at Human FXIa, above 40 µM; at Human Factor XIIa it was above 40 µM. The inhibition at 40 µM at Human FXIa (40 μM test compound, read-out: % Inhibition @ 40 μM (human FXIa)) was determined as 0%.

`COCc1nn(Cc2ccc(Cn3ccccc3=O)cc2)cc1C(=O)NCc1ncc(F)cc1F` [Example 26, N-[(3,5-difluoropyridin-2-yl)methyl]-3-(methoxymethyl)-1-({4-[(2-oxopyridin-1-yl)methyl]phenyl}methyl)pyrazole-4-carboxamide]: the IC50 on Human plasma kallikrein is 1.76 µM; at Human KLK1, above 40 µM; against Human FXIa, above 40 µM; on Human Factor XIIa, above 40 µM.

For the compound `COCc1nn(Cc2ccc(Cn3ccccc3=O)cc2)cc1C(=O)NCc1nc(C)ccc1F` [Example 27, N-[(3-fluoro-6-methylpyridin-2-yl)methyl]-3-(methoxymethyl)-1-({4-[(2-oxopyridin-1-yl)methyl]phenyl}methyl)pyrazole-4-carboxamide], the IC50 was 0.775 µM on Human plasma kallikrein, above 40 µM at Human KLK1, above 40 µM against Human FXIa and above 40 µM on Human Factor XIIa.

Regarding `COCc1nn(Cc2ccc(Cn3ccccc3=O)cc2)cc1C(=O)NCc1nn(C)cc1Cl` [Example 34, N-[(4-chloro-1-methylpyrazol-3-yl)methyl]-3-(methoxymethyl)-1-({4-[(2-oxopyridin-1-yl)methyl]phenyl}methyl)pyrazole-4-carboxamide], the IC50 at Human plasma kallikrein is 0.709 µM; at Human KLK1 it was above 40 µM; against Human FXIa, above 40 µM.

`COCc1nn(Cc2ccc(Cn3ccccc3=O)cc2)cc1C(=O)NCc1cc(OC)cc(OC)c1` [Reference Example A, N-(3,5-Dimethoxybenzyl)-3-(methoxymethyl)-1-(4-((2-oxopyridin-1(2H)-yl)methyl)benzyl)-1H-pyrazole-4-carboxamide, reference compound]: the IC50 against Human KLK1 was above 10 µM; against Human FXIa, above 40 µM.

Turning to `COCc1nn(Cc2cnc3cc(Cl)ccc3c2)cc1C(=O)NCc1cccc(OC)c1F` [Reference Example C, 1-(7-Chloro-quinolin-3-ylmethyl)-3-methoxymethyl-1H-pyrazole-4-carboxylic acid 2-fluoro-3-methoxy-benzylamide, reference compound], the IC50 was above 10 µM against Human KLK1 and above 40 µM at Human FXIa.

As to `COCc1nn(Cc2ccc(Cn3ccccc3=O)cc2)cc1C(=O)NCc1nccc(OC)c1F` [Reference Example D, 3-Methoxymethyl-1-[4-(2-oxo-2H-pyridin-1-ylmethyl)-benzyl]-1H-pyrazole-4-carboxylic acid (3-fluoro-4-methoxy-pyridin-2-ylmethyl)-amide, reference compound], the IC50 at Human KLK1, at Human FXIa and at Human Factor XIIa was above 40 µM in each case.

Turning to `COCc1nn(Cc2ccc(Cn3ccccc3=O)cc2)cc1C(=O)NCc1c(C#N)ccc(OC)c1F` [Reference Example E, 3-Methoxymethyl-1-[4-(2-oxo-2H-pyridin-1-ylmethyl)-benzyl]-1H-pyrazole-4-carboxylic acid 6-cyano-2-fluoro-3-methoxy-benzylamide, reference compound], the IC50 against Human FXIa and on Human Factor XIIa was above 40 µM each time.

Consider `COCc1nn(Cc2ccc(Cn3ccccc3=O)cc2)cc1C(=O)NCc1c(F)ccc(OC)c1C(F)F` [Reference Example F, 3-Methoxymethyl-1-[4-(2-oxo-2H-pyridin-1-ylmethyl)-benzyl]-1H-pyrazole-4-carboxylic acid 2-difluoromethyl-6-fluoro-3-methoxy-benzylamide, reference compound], for which, at Human FXIa, the IC50 was above 40 µM.

Turning to `COc1cccc(CNC(=O)c2cn(Cc3ccc(N4CCCC4)nc3)nc2C(F)(F)F)c1F` [Reference Example G, 1-(6-Pyrrolidin-1-yl-pyridin-3-ylmethyl)-3-trifluoromethyl-1H-pyrazole-4-carboxylic acid 2-fluoro-3-methoxy-benzylamide, reference compound], the IC50 against Human KLK1 is above 10 µM; against Human FXIa, above 40 µM.

The values above are taken from patent publication US11180484B2, “Pyrazole derivatives as plasma kallikrein inhibitors” (KALVISTA PHARMACEUTICALS LIMITED, priority 2016, dated 2021).
